The test system of assay [1] is HT-29. The experiment in a line: Inhibition of TNFalpha-mediated adhesion of BCECF fluorescence-labeled human U937 cells to human HT-29 cells at 1 uM pretreated for 1 hr followed by BCECF fluorescence-labeled human U937 cell/TNFalpha addition and measured after 3 hrs by fluorescence assay relative to control. It is filed as functional.
The subject of assay [2] is HT-29. The experiment in a line: Potency index, ratio of compound effect to 5-ASA effect for inhibition of TNFalpha-mediated adhesion of BCECF fluorescence-labeled human U937 cells to human HT-29 cells at 1 uM. It is filed as functional.
Assay [3] has as its system Rattus norvegicus. The experiment in a line: Antiinflammatory activity in TNBS-induced Sprague-Dawley rat colitis model assessed as myeloperoxidase level at 1 mg/kg, po administered once daily via gavage for 5 days starting 1 day post TNBS induction measured on day 7 by ELISA (reference value: 456.67 +/- 41.78 ng/ml). Format: functional.
Assay [4] relates to Rattus norvegicus. The experiment in a line: Antiinflammatory activity in TNBS-induced Sprague-Dawley rat colitis model assessed as reduction in body weight loss at 1 mg/kg, po administered once daily via gavage for 5 days starting 1 day post TNBS induction measured on day 7. Format: functional, organism-based.
Assay [5] concerns Rattus norvegicus. Briefly: Antiinflammatory activity in TNBS-induced Sprague-Dawley rat colitis model assessed as recovery in colon weight at 1 mg/kg, po administered once daily via gavage for 5 days starting 1 day post TNBS induction measured on day 7 relative to control. Format: functional.
Assay [6] deals with Rattus norvegicus. Briefly: Antiinflammatory activity in TNBS-induced Sprague-Dawley rat colitis model assessed as decrease in MCP1 expression at 1 mg/kg, po administered once daily via gavage for 5 days starting 1 day post TNBS induction measured on day 7 by ELISA. Format: functional, organism-based.
Assay [7] has as its system Rattus norvegicus. Briefly: Antiinflammatory activity in TNBS-induced Sprague-Dawley rat colitis model assessed as decrease in ICAM1 expression at 1 mg/kg, po administered once daily via gavage for 5 days starting 1 day post TNBS induction measured on day 7 by Western blot analysis. It is filed as functional, organism-based.
Assay [8] concerns Rattus norvegicus. The experiment in a line: Antiinflammatory activity in TNBS-induced Sprague-Dawley rat colitis model assessed as decrease in TNFalpha expression at 1 mg/kg, po administered once daily via gavage for 5 days starting 1 day post TNBS induction measured on day 7 by Western blot analysis. Format: functional, organism-based.
Assay [9] deals with Rattus norvegicus. Briefly: Antiinflammatory activity in TNBS-induced Sprague-Dawley rat colitis model assessed as decrease in IL1beta expression at 1 mg/kg, po administered once daily via gavage for 5 days starting 1 day post TNBS induction measured on day 7 by Western blot analysis. Format: functional, organism-based.
The subject of assay [10] is Rattus norvegicus. Briefly: Antiinflammatory activity in TNBS-induced Sprague-Dawley rat colitis model assessed as decrease in IL-6 expression at 1 mg/kg, po administered once daily via gavage for 5 days starting 1 day post TNBS induction measured on day 7 by Western blot analysis. It is filed as functional, organism-based.
Assay [11] relates to Rattus norvegicus. The experiment in a line: Antiinflammatory activity in TNBS-induced Sprague-Dawley rat colitis model assessed as increase in IL-10 expression at 1 mg/kg, po administered once daily via gavage for 5 days starting 1 day post TNBS induction measured on day 7 by Western blot analysis. Format: functional, organism-based.
Assay [12] deals with HT-29. The experiment in a line: Inhibition of TNFalpha-mediated adhesion of BCECF fluorescence-labeled human U937 cells to human HT-29 cells at 20 mM pretreated for 1 hr followed by BCECF fluorescence-labeled human U937 cell/TNFalpha addition and measured after 3 hrs by fluorescence assay relative to control. It is filed as functional.
Assay [13] relates to Rattus norvegicus. Briefly: Antiinflammatory activity in TNBS-induced Sprague-Dawley rat colitis model assessed as recovery in colon weight at 300 mg/kg, po administered once daily via gavage for 5 days starting 1 day post TNBS induction measured on day 7. Format: functional, organism-based.
In assay [14] the test system is Rattus norvegicus. Briefly: Antiinflammatory activity in TNBS-induced Sprague-Dawley rat colitis model assessed as myeloperoxidase level at 300 mg/kg, po administered once daily via gavage for 5 days starting 1 day post TNBS induction measured on day 7 by ELISA (reference value: 456.67 +/- 41.78 ng/ml). It is filed as functional.
For assay [15], the system named is Rattus norvegicus. The experiment in a line: Antiinflammatory activity in TNBS-induced Sprague-Dawley rat colitis model assessed as decrease in MCP1 expression at 300 mg/kg, po administered once daily via gavage for 5 days starting 1 day post TNBS induction measured on day 7 by ELISA. Format: functional, organism-based.
Assay [16] concerns Rattus norvegicus. Briefly: Antiinflammatory activity in TNBS-induced Sprague-Dawley rat colitis model assessed as decrease in ICAM1 expression at 300 mg/kg, po administered once daily via gavage for 5 days starting 1 day post TNBS induction measured on day 7 by Western blot analysis. Format: functional, organism-based.
In assay [17] the test system is Rattus norvegicus. Briefly: Antiinflammatory activity in TNBS-induced Sprague-Dawley rat colitis model assessed as decrease in TNFalpha expression at 300 mg/kg, po administered once daily via gavage for 5 days starting 1 day post TNBS induction measured on day 7 by Western blot analysis. It is filed as functional, organism-based.
For assay [18], the system named is Rattus norvegicus. The experiment in a line: Antiinflammatory activity in TNBS-induced Sprague-Dawley rat colitis model assessed as decrease in IL1beta expression at 300 mg/kg, po administered once daily via gavage for 5 days starting 1 day post TNBS induction measured on day 7 by Western blot analysis. It is filed as functional, organism-based.
The subject of assay [19] is Rattus norvegicus. The experiment in a line: Antiinflammatory activity in TNBS-induced Sprague-Dawley rat colitis model assessed as decrease in IL-6 expression at 300 mg/kg, po administered once daily via gavage for 5 days starting 1 day post TNBS induction measured on day 7 by Western blot analysis. It is filed as functional, organism-based.
Assay [20] has as its system Rattus norvegicus. The experiment in a line: Antiinflammatory activity in TNBS-induced Sprague-Dawley rat colitis model assessed as increase in IL-10 expression at 300 mg/kg, po administered once daily via gavage for 5 days starting 1 day post TNBS induction measured on day 7 by Western blot analysis. It is filed as functional, organism-based.
Assay [21] has as its system HT-29. Briefly: Potency index, ratio of 5-ASA IC50 to test compound IC50 for TNFalpha-mediated adhesion of BCECF fluorescence-labeled human U937 cells to human HT-29 cells. It is filed as functional.

Structures are written as SMILES. Active and inactive are the calls of the source. The calls are words filed in the database; no cut-off is given here.

In the case of `Cc1nc(Nc2cncc3ccccc23)c(C)c(C)c1O`, in assay [1], the inhibition at 1 µM came to 55.4%. In addition, the Ratio in [2] was 3 - 5.
Turning to `Cc1nc(Nc2nnc(-c3ccc(C(F)(F)F)cc3)o2)c(C)c(C)c1O`, the inhibition at 1 µM in assay [1] stood at 55.7%. Also, the Ratio in assay [2] is 3 - 5.
For `Cc1nc(Nc2cccc3[nH]ccc23)c(C)c(C)c1O`, the inhibition at 1 µM in assay [1] amounted to 31.9%. Also, in [2], the Ratio is reported as 3 - 5.
In the case of `COc1ccc(-c2nnc(Nc3nc(C)c(O)c(C)c3C)s2)cc1`, the inhibition at 1 µM in assay [1] amounted to 13.2%. Also, the Ratio in assay [2] is recorded as 3 - 5.
Consider `Cc1nc(Nc2nnc(-c3ccc(C(F)(F)F)cc3)s2)c(C)c(C)c1O`, for which, in assay [1], the inhibition at 1 µM stood at 52.3%. For the same compound, in [2], the Ratio is given as 3 - 5.
As for `Cc1nc(Nc2nnc(-c3ccccc3)s2)c(C)c(C)c1O`, in assay [1], the inhibition at 1 µM turned out to be 78.7%. Moreover, the Ratio in assay [2] is 3 - 5. Further, the figures for the Activity in [3] and in assay [5] were 107.37 ng/mL and 79%, respectively. Besides, the result in [4], in assay [6], in assay [7], in assay [8], in [9] and in [10] was Active. In addition, the result in assay [11] was Active.
`Cc1nc(Nc2ccc(C(F)(F)F)cn2)c(C)c(C)c1O`: the inhibition at 1 µM in [1] is 34.8%. The Ratio in assay [2] is listed as 3 - 5.
Take `Nc1ccc(O)c(C(=O)O)c1` [MESALAMINE]: the inhibition at 1 µM in assay [1] is 3.5%. For the same compound, the inhibition at 20000 µM in [12] stood at 50.5%.
For `CCOC(=O)c1coc(Nc2nc(C)c(O)c(C)c2C)n1`, the inhibition at 1 µM in [1] worked out at 38.5%. The Ratio in [2] was 3 - 5.
As for `O=C(O)c1cc(/N=N/c2ccc(S(=O)(=O)Nc3ccccn3)cc2)ccc1O` [SULFASALAZINE], the result in assay [13], in assay [15], in [16], in [17], in assay [18] and in assay [19] was Active. In addition, in [20], the result was Active. In assay [14], the Activity came out at 209.65 ng/mL.
With `Cc1nc(Nc2cccc3cccnc23)c(C)c(C)c1O`, the inhibition at 1 µM in [1] worked out at 10.4%. The Ratio in assay [2] is 3 - 5.
In the case of `Cc1nc(Nc2nnc(-c3ccccc3)o2)c(C)c(C)c1O`, the inhibition at 1 µM in assay [1] was determined as 1.4%.
Consider `Cc1nc(Nc2ccc(Cl)cn2)c(C)c(C)c1O`, for which the inhibition at 1 µM in assay [1] worked out at 59%. The Ratio in assay [2] is reported as 3 - 5.
Turning to `Cc1nc(Nc2ccnc3ccccc23)c(C)c(C)c1O`, the inhibition at 1 µM in assay [1] turned out to be 60.2%. For the same compound, the Ratio in assay [2] is given as 3 - 5.
As to `Cc1nc(Nc2cc(C(F)(F)F)ccn2)c(C)c(C)c1O`, the inhibition at 1 µM in assay [1] stood at 22.8%. The Ratio in assay [2] is given as 3 - 5.
Turning to `Cc1nc(Nc2nnc(C(F)(F)F)o2)c(C)c(C)c1O`, in assay [1], the inhibition at 1 µM was 35.8%. Besides, the Ratio in [2] is reported as 3 - 5.
For `Cc1nc(Nc2ccccn2)c(C)c(C)c1O`, the inhibition at 1 µM in [1] is 8.5%. In addition, in assay [2], the Ratio is reported as 3 - 5.
As to `Cc1nc(Nc2ccc3ncccc3c2)c(C)c(C)c1O`, the inhibition at 1 µM in assay [1] was 56.6%. For the same compound, the Ratio in assay [2] was 3 - 5.
With `Cc1nc(Nc2cccc3cnccc23)c(C)c(C)c1O`, the inhibition at 1 µM in assay [1] was found to be 52.8%. Further, the Ratio in [2] is recorded as 3 - 5.
On the same counts, the results for `Cc1nnc(Nc2nc(C)c(O)c(C)c2C)o1` are 26.2% and 3 - 5.
On the same counts, the results for `COC(=O)c1sccc1Nc1nc(C)c(O)c(C)c1C` are 23.7% and 3 - 5.
As for `Cc1nc(Nc2ccc(Cl)nc2)c(C)c(C)c1O`, the inhibition at 1 µM in assay [1] came to 75.4%. Further, in [2], the Ratio is recorded as 3 - 5. Also, the Activity is 127.02 ng/mL in assay [3] and 72% in assay [5]. Further, the result in [4], in assay [6], in assay [7], in assay [8], in [9] and in assay [10] was Active. The result in [11] was Active. Moreover, in assay [21], the “Ratio IC50” value was “<=7 ×10⁴ No_unit”.
As to `Cc1ccc(-c2nnc(Nc3nc(C)c(O)c(C)c3C)s2)cc1`, the inhibition at 1 µM in [1] stood at 16.6%. Besides, in assay [2], the Ratio was 3 - 5.
Turning to `Cc1nc(Nc2cnc3ccccc3c2)c(C)c(C)c1O`, the inhibition at 1 µM in assay [1] is 63.4%. For the same compound, in assay [2], the Ratio is 3 - 5. In [21], the “Ratio IC50” value is listed as “<=7 ×10⁴ No_unit”.
As to `Cc1nc(Nc2nc3ccccc3[nH]2)c(C)c(C)c1O`, in assay [1], the inhibition at 1 µM amounted to 59.9%. Further, in [2], the Ratio was 3 - 5.
Regarding `Cc1nc(Nc2nccs2)c(C)c(C)c1O`, the inhibition at 1 µM in assay [1] was 23.7%. The Ratio in assay [2] was 3 - 5.
Regarding `Cc1nc(Nc2nnc(-c3ccc(Br)cc3)s2)c(C)c(C)c1O`, the inhibition at 1 µM in assay [1] was found to be 13.7%. The Ratio in [2] is 3 - 5.
Consider `Cc1nc(Nc2ccc(C(F)(F)F)nc2)c(C)c(C)c1O`, for which, in [1], the inhibition at 1 µM is 50.6%. Besides, in assay [2], the Ratio was 3 - 5.

The values above are taken from ChEMBL document CHEMBL4257530, “Synthesis and evaluation of 6-heteroarylamino-2,4,5-trimethylpyridin-3-ols as inhibitors of TNF-α-induced cell adhesion and inflammatory bowel disease” (Medchemcomm, 2018).
